Experiments:
[1] = biological target: T1, E4, a resistance-associated esterase (Myzus persicae, UniProt P35501); conditions: compared with PBO; cited from earlier work
T1 sequence (P35501 24-552): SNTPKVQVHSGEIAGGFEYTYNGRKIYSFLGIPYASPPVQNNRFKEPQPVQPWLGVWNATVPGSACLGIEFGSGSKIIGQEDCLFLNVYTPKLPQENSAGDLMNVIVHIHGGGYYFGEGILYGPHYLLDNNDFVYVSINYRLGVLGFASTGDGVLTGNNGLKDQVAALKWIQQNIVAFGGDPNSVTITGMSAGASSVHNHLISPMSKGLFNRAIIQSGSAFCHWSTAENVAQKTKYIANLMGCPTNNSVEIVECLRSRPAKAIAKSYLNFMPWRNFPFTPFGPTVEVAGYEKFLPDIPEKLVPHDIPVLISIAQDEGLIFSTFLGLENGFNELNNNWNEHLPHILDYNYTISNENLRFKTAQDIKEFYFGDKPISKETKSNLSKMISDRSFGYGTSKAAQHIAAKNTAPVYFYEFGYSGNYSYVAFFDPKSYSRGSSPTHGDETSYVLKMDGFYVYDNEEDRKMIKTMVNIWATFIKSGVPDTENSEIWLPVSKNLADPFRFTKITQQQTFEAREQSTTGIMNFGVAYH

[2] = biological target: T2, FE4 Myzus persicae esterases (Myzus persicae, UniProt P35502); assay: Inhibition of esterase FE4, 4-nitrophenyl acetate model substrate assay; type: biochemical; conditions: purified FE4, 2.5 μL of 10 mM compound in acetone, 10 min incubation, substrate 4-nitrophenyl acetate 0.8 mM, read at 405 nm
T2 construct: would be utilised for the purified esterases from aphids; from tissue; host or cells: aphids (Myzus persicae), purified esterase
T2 sequence (P35502 24-564): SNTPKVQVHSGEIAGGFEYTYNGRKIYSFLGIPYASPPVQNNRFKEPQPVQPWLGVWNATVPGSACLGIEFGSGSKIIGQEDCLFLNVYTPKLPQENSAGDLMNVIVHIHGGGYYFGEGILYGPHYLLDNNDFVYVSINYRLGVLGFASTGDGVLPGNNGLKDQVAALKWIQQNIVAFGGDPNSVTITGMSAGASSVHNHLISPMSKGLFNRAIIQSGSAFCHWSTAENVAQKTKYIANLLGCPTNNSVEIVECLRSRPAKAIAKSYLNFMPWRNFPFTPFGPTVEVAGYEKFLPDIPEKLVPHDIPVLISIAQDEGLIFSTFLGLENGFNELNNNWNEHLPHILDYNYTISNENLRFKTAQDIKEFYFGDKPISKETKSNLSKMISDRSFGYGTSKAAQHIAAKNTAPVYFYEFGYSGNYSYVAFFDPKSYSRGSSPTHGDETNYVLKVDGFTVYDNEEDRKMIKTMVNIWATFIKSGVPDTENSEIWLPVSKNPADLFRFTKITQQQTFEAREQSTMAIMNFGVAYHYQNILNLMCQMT
Experimental: Inhibition of Esterasenzymes by Synergists in Myzus persicae
It was envisaged, therefore, that the ‘esterase intereference assay’ (Khot et al., 2008) would be utilised for the purified esterases from aphids. Various esterase substrates were assessed to find one suitable of monitoring inhibition in an insect homogenate. The Myzus persicae resistance associated esterase, FE4, was used.
Initially the esterase interference assay was carried out, as being the ‘absolute’ protocol for characterizing interactions between the compounds of Example 1-9 and FE4. However, since this is a protracted method, a selection of products already reported in the literature were used to compare the interference assay and the use of a model substrate.
From the literature (Philippou et al., 2013) it is known that 1-naphthyl acetate is not suitable for this assay. Instead, 4-nitrophenyl acetate was used. A 10 mM pNA stock was prepared in acetone and added to 0.02 M phosphate buffer pH 7.0 (final concentration 2 mM). The comparison was made with 6 PBO analogues of variable efficacy.
For the assay 10 μL of purified FE4 was diluted to a total volume of 50 μL by the addition of 0.02 M phosphate buffer, pH 7.0 in individual wells of a microplate (maxisorb, NUNC). To each well, 2.5 μL of 10 mM of the compound of Example 1 and of Example 2 in acetone was added and incubated for 10 mins, with acetone only used as a control. Following incubation, 100 μL of 0.02 phosphate buffer, pH 7.0 and 100 μL of 2 mM 4-nitrophenyl acetate was added (final volume in well 250 μL, final substrate concentration 0.8 mM). Enzyme activity was read at 405 nm in a Spectramax Tmax for 5 min, with readings taken every 5 secs. The rate (mOD min^−1) was calculated by the integrated software, Softmax Pro v.5.4.

Bemisia tabaci CYPCM1 = conditions: recombinant enzyme 50 μL + 3 μL of 10 mM compound stock in acetone, 10 min incubation at room temperature, substrate 7-ethoxycoumarin, NADPH
Experimental: Ability of the compounds of the invention to inhibit oxidative enzymes (P450), a major mechanism conferring resistance to xenobiotics, was measured using recombinant enzymes corresponding to CYPCM1 from Bemisia tabaci.
Substrate used was 7-ethoxycoumarin for inhibition assays as described by Ulrich and Weber (1972) and adapted to microplate format as described by De Sousa et al. (1995).
Diluted recombinant enzyme (50 μL) was mixed with 3 μL of the above mentioned compound stock solutions, with acetone only used as a control. After 10 min incubation at room temperature, 80 μL of 0.125 mM 7- ethoxycoumarin was added, followed by 10 μL 9.6 mM NADPH (nicotinamide adenine dinucleotide phosphate) in 0.1 M sodium phosphate, pH 7.8, and O-deethylation activity monitored as above. A PBO solution (10 mM) was prepared in the same way as a comparison.

CC#CCOc1ccc2c(c1)OCC2 [EN16-18, 6-(but-2-ynyloxy)-2,3-dihydrobenzofuran]
binding affinity [1]: comparable with PBO

C#CCOCc1cc(CCCCCC)cc2c1OCC2 [Example 1, 5-n-hexyl-7-((prop-2-ynyloxy)methyl)-2,3-dihydrobenzofuran]
remaining activity at 10000 µM (stock) [2]: 26.2%

CC#CCOCc1cc(CCCCCC)cc2c1OCC2 [Example 2, 5-n-hexyl-7-((but-2-ynyloxy)methyl)-2,3-dihydrobenzofuran]
remaining activity at 10000 µM (stock) [2]: 35.4%
% activity remaining (Bemisia tabaci CYPCM1): 27.49%

CC#CCOCc1cc(CCCC)cc2c1OCC2 [Example 3, 5-n-butyl-7-((but-2-ynyloxy)methyl)-2,3-dihydrobenzofuran]
remaining activity at 10000 µM (stock) [2]: 19.9%
% activity remaining (Bemisia tabaci CYPCM1): 3.16%

CC#CCOc1cc(CCCCCC)cc2c1OCC2 [Example 4, 5-n-hexyl-7-(but-2-ynyloxy)-2,3-dihydrobenzofuran]
remaining activity at 10000 µM (stock) [2]: 24%
% activity remaining (Bemisia tabaci CYPCM1): 39.22%

C#CCOCc1cc(CCCC)cc2c1OCC2 [Example 5, 5-n-butyl-7-((prop-2-ynyloxy)methyl)-2,3-dihydrobenzofuran]
remaining activity at 10000 µM (stock) [2]: 18.4%
% activity remaining (Bemisia tabaci CYPCM1): 87.62%

C#CCOc1cc(CCCCCC)cc2c1OCC2 [Example 6, 5-n-hexyl-7-(prop-2-ynyloxy)-2,3-dihydrobenzofuran]
remaining activity at 10000 µM (stock) [2]: 29.8%
% activity remaining (Bemisia tabaci CYPCM1): 61.16%

CC#CCOCc1cc(CCC)cc2c1OCC2 [Example 7, 5-n-propyl-7-((but-2-ynyloxy)methyl)-2,3-dihydrobenzofuran]
remaining activity at 10000 µM (stock) [2]: 19.9%
% activity remaining (Bemisia tabaci CYPCM1): 17.92%

C#CCOCc1cc(CCC)cc2c1OCC2 [Example 8, 5-n-propyl-7-((prop-2-ynyloxy)methyl)-2,3-dihydrobenzofuran]
remaining activity at 10000 µM (stock) [2]: 23.9%
% activity remaining (Bemisia tabaci CYPCM1): 86.22%

From patent US10412961B2, “Substituted 2,3-dihydrobenzofuran compounds and their use as synergists” (Endura SPA, priority 2015, dated 2019)
